# In US11046699B2, “Pyrazolo-pyrimidin-amino-cycloalkyl compounds and their therapeutic uses” (RAPT THERAPEUTICS, INC., priority 2018, dated 2021):
# Where a name gives a salt, the structure may show the parent alone.
# Target: GCN2 (Homo sapiens, UniProt Q9P2K8)
# Test: GCN2 enzymatic endpoint assay: phosphorylation of GFP-eIF2α measured by TR-FRET (Lanthascreen)
# Format: biochemical
# Details: GCN2 biochemical IC50; 4 nM GCN2, 2 μM ATP, 80 nM GFP-eIF2α, 90 min RT; read-out: GCN2 activity
# In short: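 Read-out is the TR-FRET ratio of acceptor signal at 520 nm to terbium donor at 495 nm, rising with antibody binding to phosphorylated GFP-eIF2α. Endpoint format: 2 μM ATP, 80 nM substrate, 90 minutes at room temperature, EDTA stop.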
# Chain of GCN2 (Q9P2K8 whole entry): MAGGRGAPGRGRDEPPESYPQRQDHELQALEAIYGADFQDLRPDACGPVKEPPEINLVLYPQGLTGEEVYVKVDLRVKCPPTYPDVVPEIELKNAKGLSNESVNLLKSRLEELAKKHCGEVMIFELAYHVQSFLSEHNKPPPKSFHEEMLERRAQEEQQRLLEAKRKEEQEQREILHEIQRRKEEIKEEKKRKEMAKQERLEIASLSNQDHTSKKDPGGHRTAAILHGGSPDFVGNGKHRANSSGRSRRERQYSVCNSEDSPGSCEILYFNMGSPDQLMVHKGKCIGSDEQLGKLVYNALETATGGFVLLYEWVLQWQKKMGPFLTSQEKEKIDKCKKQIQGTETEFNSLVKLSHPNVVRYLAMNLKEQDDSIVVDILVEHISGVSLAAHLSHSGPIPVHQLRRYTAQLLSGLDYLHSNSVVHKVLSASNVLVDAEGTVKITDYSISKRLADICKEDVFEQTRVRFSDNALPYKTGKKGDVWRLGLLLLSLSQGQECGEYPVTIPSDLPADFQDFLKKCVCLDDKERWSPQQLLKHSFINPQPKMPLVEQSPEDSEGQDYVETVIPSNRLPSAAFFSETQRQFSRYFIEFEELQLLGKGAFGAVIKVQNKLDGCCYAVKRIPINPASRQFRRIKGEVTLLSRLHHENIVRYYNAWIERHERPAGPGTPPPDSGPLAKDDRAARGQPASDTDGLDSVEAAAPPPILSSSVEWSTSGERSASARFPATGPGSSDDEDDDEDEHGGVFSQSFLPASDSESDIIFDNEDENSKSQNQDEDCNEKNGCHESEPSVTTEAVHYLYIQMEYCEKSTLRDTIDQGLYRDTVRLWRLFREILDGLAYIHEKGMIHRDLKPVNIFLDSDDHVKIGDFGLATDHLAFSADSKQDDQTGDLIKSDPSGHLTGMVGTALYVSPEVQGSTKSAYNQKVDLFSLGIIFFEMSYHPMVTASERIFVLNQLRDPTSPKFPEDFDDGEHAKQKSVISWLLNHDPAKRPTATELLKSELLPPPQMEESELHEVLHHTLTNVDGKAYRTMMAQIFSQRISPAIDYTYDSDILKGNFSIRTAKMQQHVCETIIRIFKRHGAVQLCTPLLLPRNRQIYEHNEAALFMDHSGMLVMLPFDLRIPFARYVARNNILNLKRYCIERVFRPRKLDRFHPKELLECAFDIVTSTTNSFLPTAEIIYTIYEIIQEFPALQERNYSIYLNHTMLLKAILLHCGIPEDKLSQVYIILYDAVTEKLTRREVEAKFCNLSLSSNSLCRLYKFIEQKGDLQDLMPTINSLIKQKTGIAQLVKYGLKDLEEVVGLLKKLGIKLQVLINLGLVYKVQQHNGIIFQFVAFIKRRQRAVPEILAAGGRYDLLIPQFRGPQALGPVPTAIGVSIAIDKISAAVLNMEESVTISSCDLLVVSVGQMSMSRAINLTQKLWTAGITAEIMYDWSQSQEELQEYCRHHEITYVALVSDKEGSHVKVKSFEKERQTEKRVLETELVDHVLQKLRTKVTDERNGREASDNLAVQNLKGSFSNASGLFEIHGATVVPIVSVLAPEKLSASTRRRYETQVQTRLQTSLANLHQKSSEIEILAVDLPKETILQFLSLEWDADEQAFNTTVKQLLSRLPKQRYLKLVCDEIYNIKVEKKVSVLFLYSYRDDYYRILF
row,SMILES,IC50
1,"CNC(=O)[C@]1(C)CC[C@@H](Nc2ncc3c(Br)nn(-c4ccc(N5CCOCC5)c(C#N)c4)c3n2)C1 [Example 59, (1R,3R)-3-((3-bromo-1-(3-cyano-4-morpholinophenyl)-1H-pyrazolo[3,4-d]pyrimidin-6-yl)amino)-N,1-dimethylcyclopentane-1-carboxamide hydrochloride]",25 to 200 nM
2,"Cc1nnc(-c2ccc(-n3nc(Br)c4cnc(N[C@@H]5CC[C@@](C)(C(N)=O)C5)nc43)cc2)s1 [Example 60, (1R,3R)-3-((3-bromo-1-(4-(5-methyl-1,3,4-thiadiazol-2-yl)phenyl)-1H-pyrazolo[3,4-d]pyrimidin-6-yl)amino)-1-methylcyclopentane-1-carboxamide]",25 to 200 nM
3,"COCCC(=O)N[C@H]1C[C@H](Nc2ncc3c(Br)nn(-c4ccc5ncccc5c4)c3n2)C1 [Example 3, N-((1r,3r)-3-((3-bromo-1-(quinolin-6-yl)-1H-pyrazolo[3,4-d]pyrimidin-6-yl)amino)cyclobutyl)-3-methoxypropanamide]",500 to 1000 nM

# Same assay, conditions: tested as described in Example 77; compound and/or hydrochloride, dihydrochloride or trifluoroacetic acid salt; read-out: IC 50 Activity
row,SMILES,IC50
1,"CNC(=O)[C@]1(C)CC[C@@H](Nc2ncc3c(Br)nn(-c4ccc(-c5ccn(C)n5)cc4)c3n2)C1 [(1R,3R)-3-[[3-bromo-1-[4-(1-methyl-pyrazol-3-yl)phenyl]pyrazolo[3,4-d]pyrimidin-6-yl]amino]-N,1-dimethyl-cyclopentanecarboxamide]",25 to 200 nM
2,"CC1(C(=O)N2CCN3CCOC[C@@H]3C2)CC[C@@H](Nc2ncc3c(Br)nn(-c4cc(F)c5ncccc5c4)c3n2)C1 (stereo partly drawn) [[(9aS)-3,4,6,7,9,9a-hexahydro-1H-pyrazino [2,1-c][1,4]oxazin-8-yl]-[(3R)-3-[[3-bromo-1-(8-fluoro-6-quinolyl)pyrazolo[3,4-d]pyrimidin-6-yl]amino]-1-methyl-cyclopentyl]methanone]",25 to 200 nM
3,"CNC(=O)[C@]1(C)CC[C@@H](Nc2ncc3c(Br)nn(-c4ccc(OCC#N)cc4)c3n2)C1 [(1R,3R)-3-[[3-bromo-1-[4-(cyanomethoxy)phenyl]pyrazolo[3,4-d]pyrimidin-6-yl]amino]-N,1-dimethyl-cyclopentane-carboxamide]",25 to 200 nM
4,"CNC(=O)C1(C)CC[C@@H](Nc2ncc3c(Br)nn(-c4ccc(-c5nc(C)no5)cc4)c3n2)C1 (stereo partly drawn) [(3R)-3-[[3-bromo-1-[4-(3-methyl-1,2,4-oxadiazol-5-yl)phenyl]pyrazolo[3,4-d]pyrimidin-6-yl]amino]-N,1-dimethyl-cyclopentanecarboxamide]",25 to 200 nM
5,CC(C)(CN1CCCC1)NC(=O)[C@@H]1CC[C@@H](Nc2ncc3c(Br)nn(-c4ccc5ncccc5c4)c3n2)C1,25 to 200 nM
6,"Cc1nc2c(F)cc(-n3nc(Br)c4cnc(N[C@@H]5CC[C@@H](C(=O)N6CCN(C)C(=O)C6)C5)nc43)cc2cc1F [4-((1R,3R)-3-((3-bromo-1-(3,8-difluoro-2-methylquinolin-6-yl)-1H-pyrazolo[3,4-d]pyrimidin-6-yl)amino)cyclopentane-1-carbonyl)-1-methylpiperazin-2-one]",25 to 200 nM
7,"CNC(=O)[C@]1(C)CC[C@@H](Nc2ncc3c(Br)nn(-c4ccc5c(c4)C(=O)NC5=O)c3n2)C1 [(1R,3R)-3-[[3-bromo-1-(1,3-dioxo-isoindolin-5-yl)pyrazolo[3,4-d]pyrimidin-6-yl]amino]-N,1-dimethyl-cyclopentanecarboxamide]",25 to 200 nM
8,"Fc1cc(-n2nc(Br)c3cnc(NC4COC5(CCNCC5)C4)nc32)cc2cccnc12 (stereo not shown) [N-[3-bromo-1-(8-fluoro-6-quinolyl)pyrazolo [3,4-d]pyrimidin-6-yl]-1-oxa-8-azaspiro[4.5] decan-3-amine]",25 to 200 nM
9,"CCS(=O)(=O)N1Cc2cc(-n3nc(Br)c4cnc(N[C@@H]5CC[C@@](C)(C(=O)NC)C5)nc43)cnc2C1 [(1R,3R)-3-[[3-bromo-1-(6-ethylsulfonyl-5,7-dihydropyrrolo[3,4-b]pyridin-3-yl)pyrazolo[3,4-d]pyrimidin-6-yl]amino]-N,1-dimethyl-cyclopentanecarboxamide]",25 to 200 nM
10,"CNC(=O)[C@]1(C)CC[C@@H](Nc2ncc3c(Br)nn(-c4ccc5ncc(C(C)(C)O)cc5c4)c3n2)C1 [(1R,3R)-3-[[3-bromo-1-[3-(1-hydroxy-1-methyl-ethyl)-6-quinolyl]pyrazolo[3,4-d]pyrimidin-6-yl]amino]-N,1-dimethyl-cyclopentanecarboxamide]",25 to 200 nM
11,CNC(=O)C1(CC#N)CC[C@@H](Nc2ncc3c(Br)nn(-c4ccc(-c5nnc(C)s5)cc4)c3n2)C1 (stereo partly shown),25 to 200 nM
12,"CNC(=O)C1(C)CC[C@@H](Nc2ncc3c(Br)nn(-c4ccc5nc(C)cc(Cl)c5c4)c3n2)C1 (stereo partly drawn) [(3R)-3-[[3-bromo-1-(4-chloro-2-methyl-6-quinolyl)pyrazolo[3,4-d]pyrimidin-6-yl]amino]-N,1-dimethyl-cyclopentane-carboxamide]",25 to 200 nM
13,"COCCNC(=O)[C@@H]1CC[C@@H](Nc2ncc3c(Br)nn(-c4ccc5nc(C)cc(Cl)c5c4)c3n2)C1 [(1R,3R)-3-((3-bromo-1-(4-chloro-2-methyl-quinolin-6-yl)-1H-pyrazolo[3,4-d]pyrimidin-6-yl)amino)-N-(2-methoxyethyl)cyclopentane-1-carboxamide]",200 to 500 nM
14,"CC(O)C(=O)N1CCN(C(=O)[C@@H]2CC[C@@H](Nc3ncc4c(Br)nn(-c5ccc6ncccc6c5)c4n3)C2)CC1 (stereo partly drawn) [1-(4-((1R,3R)-3-((3-bromo-1-(quinolin-6-yl)-1H-pyrazolo[3,4-d]pyrimidin-6-yl)amino)cyclopentane-1-carbonyl)piperazin-1-yl)-2-hydroxypropan-1-one]",25 to 200 nM
15,"CNC(=O)[C@]1(C)CC[C@@H](Nc2ncc3c(Br)nn(-c4cc(C5CNCCO5)c5ncccc5c4)c3n2)C1 (stereo partly drawn) [(1R,3R)-3-[[3-bromo-1-(8-morpholin-2-yl-6-quinolyl)pyrazolo[3,4-d]pyrimidin-6-yl]amino]-N,1-dimethyl-cyclopentane-carboxamide]",25 to 200 nM
16,"Cc1nnc(-c2ccc(-n3nc(Br)c4cnc(N[C@@H]5CCC(S(C)(=O)=O)C5)nc43)cc2)s1 (stereo partly drawn) [3-bromo-N-[(1R)-3-methylsulfonylcyclo-pentyl]-1-[4-(5-methyl-1,3,4-thiadiazol-2-yl)phenyl]pyrazolo[3,4-d]pyrimidin-6-amine]",25 to 200 nM
17,"CNC(=O)[C@]1(C)CC[C@@H](Nc2ncc3c(Br)nn(-c4cc(Cl)cc(OCC5(F)CNC5)c4)c3n2)C1 [(1R,3R)-3-[[3-bromo-1-[3-chloro-5-[(3-fluoroazetidin-3-yl)methoxy]phenyl]pyrazolo[3,4-d]pyrimidin-6-yl]amino]-N,1-dimethyl-cyclopentanecarboxamide]",< 25 nM
18,"CNC(=O)[C@]1(C)CC[C@@H](Nc2ncc3c(Br)nn(-c4cc(CNCCOC)c5ncccc5c4)c3n2)C1 [(1R,3R)-3-[[3-bromo-1-[8-[(2-methoxy-ethylamino)methyl]-6-quinolyl]pyrazolo [3,4-d]pyrimidin-6-yl]amino]-N,1-dimethyl-cyclopentanecarboxamide]",25 to 200 nM
19,"CNC(=O)[C@]1(C)CC[C@@H](Nc2ncc3c(Br)nn(-c4ccc(-c5ncco5)c(C5CCCNC5)c4)c3n2)C1 (stereo partly drawn) [(1R,3R)-3-[[3-bromo-1-[4-oxazol-2-yl-3-(3-piperidyl)phenyl]pyrazolo[3,4-d]pyrimidin-6-yl]amino]-N,1-dimethyl-cyclopentanecarboxamide]",25 to 200 nM
20,"CC[C@@]1(C(=O)NC)CC[C@@H](Nc2ncc3c(Br)nn(-c4cc(F)c5ncccc5c4)c3n2)C1 [(1R,3R)-3-[[3-bromo-1-(8-fluoro-6-quinolyl)pyrazolo[3,4-d]pyrimidin-6-yl]amino]-1-ethyl-N-methyl-cyclopentanecarboxamide]",< 25 nM
21,"CNC(=O)[C@]1(C)CC[C@@H](Nc2ncc3c(Br)nn(-c4cc(OCCOC)c5ncccc5c4)c3n2)C1 [(1R,3R)-3-[[3-bromo-1-[8-(2-methoxy-ethoxy)-6-quinolyl]pyrazolo[3,4-d]pyrimidin-6-yl]amino]-N,1-dimethyl-cyclopentanecarboxamide]",< 25 nM
22,"CNC(=O)[C@]1(C)CC[C@@H](Nc2ncc3c(Br)nn(-c4ccc5c(c4)[C@H](NS(C)(=O)=O)CC5)c3n2)C1 [(1R,3R)-3-[[3-bromo-1-[(3R)-3-(methanesulfonamido)indan-5-yl]pyrazolo [3,4-d]pyrimidin-6-yl]amino]-N,1-dimethyl-cyclopentanecarboxamide]",25 to 200 nM
23,"CNC(=O)[C@]1(C)CC[C@@H](Nc2ncc3c(Br)nn(-c4ccc(-c5nnc(C(C)(C)N)o5)c(C#N)c4)c3n2)C1 [(1R,3R)-3-[[1-[4-[5-(1-amino-1-methyl-ethyl)-1,3,4-oxadiazol-2-yl]-3-cyano-phenyl]-3-bromo-pyrazolo[3,4-d]pyrimidin-6-yl]amino]-N,1-dimethyl-cyclopentanecarboxamide]",< 25 nM
24,"CNC(=O)[C@]1(C)CC[C@@H](Nc2ncc3c(Br)nn(-c4cc(CN[S+](C)[O-])c5nccnc5c4)c3n2)C1 (stereo partly drawn) [(1R,3R)-3-[[3-bromo-1-[8-(methane-sulfinamidomethyl)quinoxalin-6-yl]pyrazolo[3,4-d]pyrimidin-6-yl]amino]-N,1-dimethyl-cyclopentane-carboxamide]",25 to 200 nM
25,"CNC(=O)[C@@]1(C)CC[C@@H](Nc2ncc3c(I)nn(-c4ccc(-c5nnc(C)o5)cc4)c3n2)C1 [(1S,3R)-3-[[3-iodo-1-[4-(5-methyl-1,3,4-oxadiazol-2-yl)phenyl]pyrazolo[3,4-d]pyrimidin-6-yl]amino]-N,1-dimethyl-cyclopentanecarboxamide]",25 to 200 nM
26,Cc1nnc(-c2ccc(-n3nc(Br)c4cnc(N[C@@H]5CC[C@@H](NC(=O)[C@H]6CCCCN6)C5)nc43)cc2)s1,25 to 200 nM
27,"CNC(=O)C1(C)CC[C@@H](Nc2ncc3c(Br)nn(-c4ccc5[nH]c(=O)cc(C)c5c4)c3n2)C1 (stereo partly drawn) [(3R)-3-[[3-bromo-1-(4-methyl-2-oxo-1H-quinolin-6-yl)pyrazolo[3,4-d]pyrimidin-6-yl]amino]-N,1-dimethyl-cyclopentanecarboxamide]",25 to 200 nM
28,CNC(=O)[C@]1(C)CC[C@@H](Nc2ncc3c(Br)nn(-c4ccc5cncnc5c4)c3n2)C1,25 to 200 nM
